As a reminder, the EC50 is the concentration needed to bring the measured effect to its halfway point. Low values mean an effect from little substance, high ones a need for much substance.

The test system of this experiment is parasites (ring stage parasites, parasite growth). Kind of experiment: Parasite LDH growth assay (Parasite Assay), antiparasite potency. As to conditions: 72 hours growth, LDH readout. The class given is cell-based. The method in brief: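 Ring-stage culture was adjusted to 0.7% parasitemia and 2% haematocrit in bicarbonate-buffered RPMI-Hepes with heat-inactivated human serum and 0.5% albumax, then added to compound. Plates were incubated 72 h at 37 °C in gassed humidified boxes, frozen at −80 °C overnight and thawed, and growth was read by LDH assay.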

In the case of `CCC1(CC)CC(=O)N([C@H](CCOC)[C@@H]2C[C@H]2C(=O)NC2CC(C)(C)Oc3cc(Cl)ccc32)C(=N)N1` (single isomer, unassigned) [Example 147A], the EC50 (Table 4 (unit inferred)) is 2.8 nM.

As to `COCC[C@H]([C@@H]1C[C@H]1C(=O)NC1CC(C)(COC)Oc2ccccc21)N1C(=N)NC(C)(C)CC1=O` (single isomer, unassigned) [Example 82C], under “Table 3”, the EC50 is 53 nM.

Compound `Cc1cc2c(cc1Cl)[C@@H](NC(=O)[C@@H]1C[C@H]1CN1C(=N)NC(C)(C)CC1=O)CC(C)(C)O2` [Example 136] displayed an EC50 (72 h, Table 3) of 160 nM.

With `CC1(C)CC(=O)N([C@H](c2cccc(C#N)c2)[C@@H]2C[C@H]2C(=O)N[C@@H]2c3ccccc3OC(C)(C)[C@H]2O)C(=N)N1` [Example 51], the EC50 (72 h, Table 3) was found to be 5.3 nM.

The compound `COCC[C@H]([C@@H]1C[C@H]1C(=O)NC1CC(C)(COC)Oc2ccccc21)N1C(=N)NC(C)(C)CC1=O` (single isomer, unassigned) [Example 82A] returned an EC50 (Table 3) of 24.4 nM.

For the compound `COCC[C@H]([C@@H]1C[C@H]1C(=O)N[C@H]1C[C@H](C(F)(F)F)Oc2ccccc21)N1C(=N)NC(C)(C)CC1=O` [Example 24B], under “72 h, Table 3”, the midpoint of the response, the EC50, lay at 2 nM.

In turn, `CCC1(CC)CC(=O)N(C[C@@H]2C(C)[C@H]2C(=O)N[C@@H]2c3ccccc3OC(C)(C)[C@H]2O)C(=N)N1` (single isomer, unassigned) [Example 30B] returned an EC50 (Table 3) of 7.7 nM.

With `CC1(C)CC(=O)N(C[C@@H]2C[C@H]2C(=O)N[C@H]2CC(C)(C)Oc3cccc(OC(F)(F)F)c32)C(=N)N1` [Example 118], for the setting “72 h, Table 3”, the midpoint of the response, the EC50, lay at 63 nM.

For the compound `COCC[C@H]([C@@H]1C[C@H]1C(=O)N[C@H]1CC(C)(C)Oc2ccc(C(F)(F)F)cc21)N1C(=N)NC(C)(C)CC1=O` [Example 110B], the EC50 (72 h, Table 3) was 7.2 nM.

Consider `CCC1C[C@H](NC(=O)[C@@H]2C[C@H]2CN2C(=N)NC(C)(C)CC2=O)c2ccccc2O1` (single isomer, unassigned) [Example 133B], for which the midpoint of the response (Table 3), the EC50, lay at 100 nM.

`CCC1(CC)CC(=O)N(C[C@@H]2C(C)[C@H]2C(=O)N[C@@H]2c3ccccc3CC2(C)O)C(=N)N1` (single isomer, unassigned) [Example 29C]: the EC50 (Table 3) worked out at 113 nM.

Regarding `COCC[C@H]([C@@H]1C[C@H]1C(=O)N[C@H]1CC(C)(C)Oc2ccc(C)cc21)N1C(=N)NC(C)(C)CC1=O` [Example 132], under “72 h, Table 3”, it took 6.7 nM to reach a half-maximal effect (EC50).

Compound `COCC[C@H]([C@@H]1C[C@H]1C(=O)N[C@@H]1CC(C)(C)Oc2cccc(F)c21)N1C(=N)NC(C)(C)CC1=O` [Example 88B] yielded a concentration for a half-maximal effect (EC50) (72 h, Table 3) of 10 nM.

Compound `Cc1ccc2c(c1)[C@@H](NC(=O)[C@@H]1C[C@H]1CN1C(=N)NC(C)(C)CC1=O)CC(C)(C)O2` [Example 128] registered an EC50 (72 h, Table 3) of 280 nM.

In the case of `CCC1(CC)CC(=O)N(C[C@@H]2C[C@H]2C(=O)N[C@H]2CC(C)(C)Oc3ccc(F)cc32)C(=N)N1` [Example 7A], a half-maximal response (72 h, Table 3) (EC50) required 135 nM.

For the setting “Table 3”, `CC(C)C1(C)CC(NC(=O)[C@@H]2C[C@H]2CN2C(=N)NC(C)(C)CC2=O)c2ccccc2O1` (single isomer, unassigned) [Example 79C] had an EC50 of 289 nM.

On to `CCC1(C)CC(NC(=O)[C@@H]2C[C@H]2[C@@H](c2cccnc2)N2C(=N)NC(C)(C)CC2=O)c2ccccc2O1` (single isomer, unassigned) [Example 105C], for which a half-maximal response (Table 3) (EC50) required 0.8 nM.

The values are drawn from patent publication US12338219B2, “Antimalarial agents” (Merck Sharp & Dohme LLC, priority 2019, dated 2025).
